These results are taken from publication PMC9105517, “Biological Activities of Lichen-Derived Monoaromatic Compounds” (Molecules, 2022).

The test system of test [1] is Acinetobacter baumannii. In words: Agar well diffusion antimicrobial assay. The class given is cell-based. The settings on record: 8 mm wells. As for the experimental part:
(§1) The agar well diffusion method was utilized to investigate the antibacterial activity of the isolated compounds on antibiotic-resistant, pathogenic bacteria E. faecium, S. aureus, and A. baumannii. Three bacterial pathogens were cultured in nutrient broth at 37 °C for 18 h. The cultures were diluted with sterile 0.9% NaCl to obtain bacterial solutions of 1.5 × 10^8 CFU/mL. This solution with a volume of 100 μL was spread on a Mueller-Hinton agar plate. Holes with a diameter of 8 mm were punched aseptically to create wells on the surface of the Mueller–Hinton agar. The compounds were dissolved in DMSO. The amount of 50 µg of each compound solution was inserted into the wells. The plates were incubated at 37 °C for 16–18 h and the antibacterial activity of each compound was recorded by measuring the diameters of the inhibition zones surrounding the wells. The determination of the minimum inhibitory concentration of 9a against Staphylococcus aureus was performed by the agar dilution method. Compound 9a was dissolved in DMSO to the final concentration of 1 mg/mL and then diluted with Mueller–Hinton agar (MHA) to the concentration range of 0, 1, 2, 4, 8, 16, 32, 64 μg/mL as the final concentrations in MHA plates. S. aureus was cultured in nutrient broth at 37 °C overnight with shaking. […] 1 μL of the diluted bacterial solution (10^4 CFU) was placed on the surface of the MHA plates and the plates were incubated at 37 °C for 16–18 h. The MIC value was recorded as the lowest concentration of 9a that inhibited the growth of S. aureus. Kanamycin was chosen as the positive control in this experiment, while DMSO was regarded as a control.

Test [2] has as its system Enterococcus faecium. In words: Agar well diffusion antimicrobial assay. The class given is cell-based. The settings on record: 8 mm wells. The protocol: as §1
Background: Agar diffusion results depend on both activity and mobility in agar.

Test [3] has as its system Staphylococcus aureus. In words: Agar well diffusion antimicrobial assay. The test is classed as cell-based. The settings on record: 8 mm wells. As for the experimental part: as §1
In test [4] the target is T1, Saccharomyces cerevisiae α-glucosidase (E.C 3.2.1.20) (Saccharomyces cerevisiae, UniProt P53341).
T1 construct: purchased Sigma Aldrich Co (Saint Louis, MO, USA)
T1 sequence (P53341 whole entry): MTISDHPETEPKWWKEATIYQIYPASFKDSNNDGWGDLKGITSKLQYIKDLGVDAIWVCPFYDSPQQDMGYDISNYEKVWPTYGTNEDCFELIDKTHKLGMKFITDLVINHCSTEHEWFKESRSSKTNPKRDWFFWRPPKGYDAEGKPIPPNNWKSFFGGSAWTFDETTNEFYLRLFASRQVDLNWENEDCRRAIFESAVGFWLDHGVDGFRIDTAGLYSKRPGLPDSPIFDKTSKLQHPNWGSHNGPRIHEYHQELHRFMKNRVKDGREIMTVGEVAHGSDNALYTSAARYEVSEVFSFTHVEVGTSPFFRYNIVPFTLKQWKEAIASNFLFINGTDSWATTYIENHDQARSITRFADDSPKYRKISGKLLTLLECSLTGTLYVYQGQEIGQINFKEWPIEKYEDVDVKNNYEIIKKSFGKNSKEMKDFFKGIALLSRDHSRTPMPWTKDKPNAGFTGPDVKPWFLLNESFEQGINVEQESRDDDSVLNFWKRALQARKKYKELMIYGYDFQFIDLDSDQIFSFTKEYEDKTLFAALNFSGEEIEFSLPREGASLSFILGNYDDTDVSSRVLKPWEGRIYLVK
Nature of the test: biochemical. The protocol: The alpha-glucosidase (0.2 U/mL) and substrate (5.0 mM pNPG) were dissolved in 100 mM pH 6.9 sodium phosphate buffer. The inhibitor (50 µL) was preincubated with alpha-glucosidase at 37 °C for 20 min, and the substrate (40 µL) was subsequently added to the reaction mixture. The enzymatic reaction was conducted at 37 °C for 20 min and ended by adding 0.2 M Na2CO3 (130 μL). Enzymatic activity was quantitatively measured at an absorbance of 405 nm (CLARIOstar plus, BMG LABTECH, Ortenberg, Germany). All samples were analyzed in triplicate at five different concentrations around the IC50 values, and the mean values were retained. The following equation was used to calculate the inhibition percentage (%): Inhibition (%) = [1 − (Asample/Acontrol)] × 100.

Test [5] relates to alpha-glucosidase. Details: method as in doi:10.1007/s10600-021-03404-z, PMID 33656403, PMID 29968482, PMID 18981604. Conditions: cited from earlier work.
Test [6] deals with various microorganisms. Details: method as in doi:10.1007/s11101-010-9201-1, PMID 12487331. Conditions: cited from earlier work.
Test [7] relates to S. aureus, Bacillus subtilis, Pseudomonas aeruginosa, Candida albicans, Escherichia coli, and Aspergillus niger. Details: method as in PMID 3834834. The settings on record: various microorganisms; cited from earlier work.
Test [8] deals with Staphylococcus aureus. Nature of the test: Minimum inhibitory concentration by agar dilution method. The test is classed as cell-based. The settings on record: 37 °C, 16–18 h. As for the experimental part:
The agar well diffusion method was utilized to investigate the antibacterial activity of the isolated compounds on antibiotic-resistant, pathogenic bacteria E. faecium, S. aureus, and A. baumannii. Three bacterial pathogens were cultured in nutrient broth at 37 °C for 18 h. The cultures were diluted with sterile 0.9% NaCl to obtain bacterial solutions of 1.5 × 10^8 CFU/mL. This solution with a volume of 100 μL was spread on a Mueller-Hinton agar plate. Holes with a diameter of 8 mm were punched aseptically to create wells on the surface of the Mueller–Hinton agar. The compounds were dissolved in DMSO. The amount of 50 µg of each compound solution was inserted into the wells. The plates were incubated at 37 °C for 16–18 h and the antibacterial activity of each compound was recorded by measuring the diameters of the inhibition zones surrounding the wells. The determination of the minimum inhibitory concentration of 9a against Staphylococcus aureus was performed by the agar dilution method. Compound 9a was dissolved in DMSO to the final concentration of 1 mg/mL and then diluted with Mueller–Hinton agar (MHA) to the concentration range of 0, 1, 2, 4, 8, 16, 32, 64 μg/mL as the final concentrations in MHA plates. S. aureus was cultured in nutrient broth at 37 °C overnight with shaking. […] The MIC value was recorded as the lowest concentration of 9a that inhibited the growth of S. aureus. […]
A general note: In agar dilution the substance is mixed into plates at graded concentrations.

Setting [9] is: in vitro, 37 °C, pH 6.9, triplicate, read-out: IC50, alpha-glucosidase inhibitory activity (converted).

Converted amounts (≈) assume the structure as drawn. Like-named read-outs stand apart in the source and are kept apart here.

For orientation: zone of inhibition means the size of the clear area around the sample on an inoculated plate. Read a low zone of inhibition as a weaker effect on the plate. On to `CN[C@@H]1[C@@H](O[C@H]2O[C@H](CO)[C@@H](N)[C@H](O)[C@H]2O)OC2C[C@@H](N)[C@@H](O[C@H]3[C@H](O)[C@@H](O)[C@H](N)C[C@@H]3N)OC2[C@@H]1O` (some centres unmarked) [Apramycin, reference compound], for which the figures for the zone of inhibition at 50 µg/mL in test [1], in test [2] and in test [3] were 20 mm, 21 mm and 21 mm, respectively.
The IC50 is the point on the concentration scale where inhibition reaches its midpoint. In the case of `O=C(O)c1cc(O)cc(O)c1` [Compound 1, 3,5-dihydroxybenzoic acid], the IC50 in test [4] (setting [9]) is 729 µM.
As to `COC(=O)c1cc(O)cc(O)c1` [Compound 2, 3,5-dihydroxybenzoate methyl], in test [4] (setting [9]), the IC50 was 939 µM.
With `Cc1c(O)cc(C(=O)O)cc1O` [Compound 3, 3,5-dihydroxy-4-methylbenzoic acid], the IC50 in test [4] is 143 µM.
On to `COc1c(O)cc(C(=O)O)cc1O` [Compound 4, 3,5-dihydroxy-4-methoxylbenzoic acid], for which the IC50 in test [4] (setting [9]) was 929 µM.
For the compound `Cc1cc(O)c(O)c(O)c1` [Compound 5, 3-hydroxyorcinol], the IC50 in test [4] (setting [9]) is 694 µM.
On to `Cc1cc(O)c(C=O)c(O)c1` [Compound 6, atranol], for which, in test [4], the IC50 is more than 1970 µM.
For `COC(=O)c1c(C)cc(O)c(C=O)c1O` [Compound 7, methyl hematommate], the “alpha-glucosidase inhibition (in words)” value in test [5] was “potent activity”. Moreover, the IC50 in test [4] (setting [9]) was 294 µM.
In general, MIC refers to the smallest concentration in the dilution series that meets the test's criterion for growth inhibition. For `COC(=O)c1c(C)cc(O)c(C)c1O` [Compound 8, methyl β-orsellinate], the “alpha-glucosidase inhibition (in words)” value in test [5] is recorded as “weak inhibitors”. In test [4], this compound came in with an IC50 of more than 1530 µM. The MIC in test [6] is 30 to 500 µg/mL; in test [7], 80 to 160 µg/mL. Besides, the zone of inhibition at 50 µg/mL in test [1] is 16 mm; in test [2], 13 mm; in test [3] it was 18 mm.
`COC(=O)c1c(C)c(Br)c(O)c(C)c1O` [Compound 8a, methyl 5-bromo-β-orsellinate] gave an IC50 in test [4] of 606 µM. In addition, in test [3], the zone of inhibition at 50 µg/mL was found to be 12 mm.
Regarding `COC(=O)c1c(C)cc(O)cc1O` [Compound 9, methyl orsellinate], the “alpha-glucosidase inhibition (in words)” value in test [5] was “weak inhibitors”. In test [4], this compound showed an IC50 of more than 1650 µM. In test [6], the MIC is 30 to 500 µg/mL. In addition, the zone of inhibition at 50 µg/mL in test [3] turned out to be 13 mm.
The compound `COC(=O)c1c(C)c(Br)c(O)c(Br)c1O` [Compound 9a, methyl 3,5-dibromo-orsellinate] gave an IC50 in test [4] of 459 µM. This compound also gave a zone of inhibition at 50 µg/mL in test [3] of 29 mm. For the same compound, in test [8] (read-out: MIC), the MIC was 4 µg/mL (≈ 11.8 µM).
The compound `Cc1cc(O)cc(O)c1C(=O)OCC(O)C(O)CO` [Compound 10, D-montagnetol] displayed an IC50 in test [4] of more than 1100 µM.
In test [4], `Cc1cc(O)c(Br)c(O)c1C(=O)OCC(O)C(O)CO` [Compound 10a, 3-bromo-D-montagnetol] had a 50% inhibitory concentration (IC50) of 381 µM. The compound further had a zone of inhibition at 50 µg/mL in test [2] of 13 mm.
`Cc1c(Br)c(O)c(Br)c(O)c1C(=O)OCC(O)C(O)CO` [Compound 10b, 3,5-dibromo-D-montagnetol]: the IC50 in test [4] was 301 µM.
For the compound `CCOC(=O)c1c(C)cc(O)cc1O` [ethyl orsellinate], the minimum inhibitory concentration (MIC) in test [6] is 30 to 500 µg/mL.
With `NC[C@H]1O[C@H](O[C@H]2[C@H](O)[C@@H](O[C@H]3O[C@H](CO)[C@@H](O)[C@H](N)[C@H]3O)[C@H](N)C[C@@H]2N)[C@H](O)[C@@H](O)[C@@H]1O` [kanamycin, reference compound], in test [8], the MIC was found to be 4 µg/mL (≈ 8.26 µM).
On to `Cc1cc(O)cc(O)c1` [orcinol], for which the MIC in test [6] is 30 to 500 µg/mL.
For cristiferide A, in test [5], the “alpha-glucosidase inhibition (in words)” value is reported as “potent activity”.
